Counter-ions that a name gives are not always drawn.

A word on the IC50: it is the midpoint of a concentration-inhibition curve.

Holding throughout (assay type): biochemical
The target in one experiment is T1, MMP-1 (Homo sapiens, UniProt P03956).
T1 sequence (P03956 100-469): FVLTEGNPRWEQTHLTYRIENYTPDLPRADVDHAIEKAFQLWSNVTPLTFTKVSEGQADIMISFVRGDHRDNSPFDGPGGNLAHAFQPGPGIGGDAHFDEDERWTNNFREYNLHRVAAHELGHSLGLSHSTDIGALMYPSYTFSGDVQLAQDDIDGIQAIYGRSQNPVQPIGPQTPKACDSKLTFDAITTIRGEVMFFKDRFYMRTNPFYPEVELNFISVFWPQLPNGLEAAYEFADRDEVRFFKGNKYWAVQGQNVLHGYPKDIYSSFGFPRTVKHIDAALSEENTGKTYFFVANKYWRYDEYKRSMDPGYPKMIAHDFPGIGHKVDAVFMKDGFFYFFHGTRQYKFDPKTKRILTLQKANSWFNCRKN
As to the kind of experiment: MMP-1 inhibition (thiopeptide or fluorescent peptide substrate). The conditions noted are these: read-out: MMP1 IC50.

A further experiment concerns the target MMP-9 (Homo sapiens, UniProt P14780). As to the kind of experiment: MMP-9 inhibition (thiopeptide or fluorescent peptide substrate). The following applies: read-out: MMP9 IC50.
The next experiment deals with MMP-13 (Homo sapiens, UniProt P45452). Nature of the experiment: MMP-13 inhibition (thiopeptide or fluorescent peptide substrate). The following applies: read-out: MMP13 IC50. Summed up: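 Human recombinant MMP-1, MMP-9 or MMP-13 was run either with a thiopeptide substrate plus DTNB (1 mM working dilution) in 50 mM HEPES pH 7.5, 5 mM CaCl2 (colorimetric), or with a quenched fluorescent peptide in HCBC buffer pH 7.0. Reactions started with substrate; the rate slope was compared with control by Dunnett's test.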

Chain of MMP-9 (P14780 94-707): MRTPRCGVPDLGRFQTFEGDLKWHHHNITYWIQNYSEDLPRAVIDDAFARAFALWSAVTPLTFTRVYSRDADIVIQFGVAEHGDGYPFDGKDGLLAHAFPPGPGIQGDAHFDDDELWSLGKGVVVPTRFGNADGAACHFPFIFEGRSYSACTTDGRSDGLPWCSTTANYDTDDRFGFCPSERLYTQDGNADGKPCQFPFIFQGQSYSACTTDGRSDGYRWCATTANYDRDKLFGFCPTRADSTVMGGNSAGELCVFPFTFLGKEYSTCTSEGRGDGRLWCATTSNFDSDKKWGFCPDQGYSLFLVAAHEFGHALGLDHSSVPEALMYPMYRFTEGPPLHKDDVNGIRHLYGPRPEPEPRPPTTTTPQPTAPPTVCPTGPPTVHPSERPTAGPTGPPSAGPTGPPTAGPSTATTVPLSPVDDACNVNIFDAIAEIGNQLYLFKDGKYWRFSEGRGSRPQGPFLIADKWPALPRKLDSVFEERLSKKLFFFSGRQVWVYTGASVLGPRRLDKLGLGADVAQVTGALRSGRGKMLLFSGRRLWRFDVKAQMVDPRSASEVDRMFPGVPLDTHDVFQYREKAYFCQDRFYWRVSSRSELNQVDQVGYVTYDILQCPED

On to `CC#CCOc1ccc(S(=O)(=O)C2(C(=O)NO)CCN(C(=O)c3cccnc3)CC2)cc1` [Example 70, 4-(4-But-2-ynyloxybenzenesulfonyl)-N-hydroxy-1-(3-pyridinylcarbonyl)-4-piperidinecarboxamide], for which the figures for the IC50 on MMP-1, on MMP-9 and on MMP-13 were 2960 nM, 639 nM and 113 nM, respectively.

Turning to `CC#CCOc1ccc(S(=O)(=O)C2(C(=O)NO)CCN(C(=O)c3cccs3)CC2)cc1` [Example 71, 4-(4-but-2-ynyloxybenzenesulfonyl)-N-hydroxy-1-(2-thienylcarbonyl)-4-piperidinecarboxamide], the IC50 on MMP-1 stood at 3120 nM; at MMP-9, 811 nM; on MMP-13, 183 nM.

Take `CC#CCOc1ccc(S(=O)(=O)C2(C(=O)NO)CCN(S(=O)(=O)c3ccc(OC)cc3)CC2)cc1` [Example 72, 4-(4-but-2-ynyloxybenzenesulfonyl)-N-hydroxy-1-[(4-methoxyphenyl)-sulfonyl]-4-piperidinecarboxamide]: the figures for the half-inhibitory concentration (IC50) at MMP-1, at MMP-9 and on MMP-13 were 4160 nM, 1210 nM and 369 nM, respectively.

`CC#CCOc1ccc(S(=O)(=O)C2(C(=O)NO)CCN(C(=O)C(C)(CO)CO)CC2)cc1` [Example 74, 4-(4-But-2-ynyloxybenzenesulfonyl)-N-hydroxy-1-[3-hydroxy-2-(hydroxymethyl)-2-methylpropanoyl]-4-piperidinecarboxamide]: the IC50 was found to be 4340 nM on MMP-1, 963 nM at MMP-9 and 287 nM at MMP-13.

With `CC#CCOc1ccc(S(=O)(=O)C2(C(=O)NO)CCN(C(=O)OC(C)(C)C)CC2)cc1` [Example 75, Tert-butyl 4-{[4-(2-butynyloxy)phenyl]sulfonyl}-4-[(hydroxyamino)carbonyl-]-1-piperidinecarboxalate], the figures for the IC50 at MMP-1, on MMP-9 and on MMP-13 were 2590 nM, 1950 nM and 284 nM, respectively.

`CC#CCOc1ccc(S(=O)(=O)C2(C(=O)NO)CCNCC2)cc1` [Example 76, 4-{[4-(2-butynyloxy)phenyl]sulfonyl}-N-hydroxy-4-piperidinecarboxamide hydrochloride]: the IC50 worked out at 4500 nM at MMP-1, 7890 nM at MMP-9 and 4020 nM at MMP-13.

Regarding `CC#CCOc1ccc(S(=O)(=O)C2(C(=O)NO)CCN(Cc3ccc(C(=O)OC)cc3)CC2)cc1` [Example 77, hydrochloride], the results for the IC50 at MMP-1, at MMP-9 and on MMP-13 were 2190 nM, 149 nM and 349 nM, respectively.

In the case of `CC#CCOc1ccc(S(=O)(=O)C2(C(=O)NO)CCN(Cc3ccc(C(=O)O)cc3)CC2)cc1` [Example 78, 4-({4-{[4-(2-butynyloxy)phenyl]sulfonyl}-4-[(hydroxyamino)-carbonyl]-1-piperidinyl}methyl)benzoic acid hydrochloride], the IC50 worked out at 1050 nM on MMP-1, 364 nM at MMP-9 and 73.7 nM at MMP-13.

Turning to `CC#CCOc1ccc(S(=O)(=O)C2(C(=O)NO)CCN(Cc3ccc(C(N)=O)cc3)CC2)cc1` [Example 79, 1-[4-(Aminocarbonyl)benzyl]-4-{[4-(2-butynyloxy)phenyl]sulfonyl}-N-hydroxy-4-piperidinecarboxamide hydrochloride], the results for the IC50 at MMP-1, at MMP-9 and on MMP-13 were 2420 nM, 129 nM and 50.6 nM, respectively.

`CC#CCOc1ccc([S+]([O-])C2(C(=O)NO)CCN(C(=O)OC(C)(C)C)CC2)cc1` (stereo not drawn) [Example 80, tert-butyl 4-{[4-(but-2-ynyloxy)phenyl]sulfinyl}-4-[(hydroxyamino)carbonyl]piperidine-1-carboxalate]: the values for the concentration for half-maximal inhibition (IC50) at MMP-1, at MMP-9 and on MMP-13 were 186000 nM, 122 nM and 40 nM, respectively.

On to `CC#CCOc1ccc([S+]([O-])C2(C(=O)NO)CCNCC2)cc1` (stereo not drawn) [Example 81, 4-(4-(But-2-ynyloxy-benzenesulfinyl)-piperidine-4-carboxylic acid hydroxamide hydrochloride], for which the IC50 was determined as 1880 nM at MMP-1, 1040 nM at MMP-9 and 593 nM on MMP-13.

With `CC#CCOc1ccc([S+]([O-])C2(C(=O)NO)CCN(Cc3ccc(Br)cc3)CC2)cc1` (stereo not drawn) [Example 82, 1-(4-Bromo-benzyl)-4-(4-But-2-ynyloxy-benzenesulfinyl)-piperidine-4-carboxylic acid hydroxamide hydrochloride], the IC50 is 257000 nM at MMP-1, 125 nM on MMP-9 and 62 nM on MMP-13.

Values taken from patent publication US6753337B2, “Alkynyl containing hydroxamic acid compounds as matrix metalloproteinase/tace inhibitors” (Wyeth Holdings Corporation, priority 1999, dated 2004).
